Measurements reported in US7691858B2, “Kinase inhibitors and methods of use thereof” (TargeGen, Inc., priority 2006, dated 2010).

Assays:
Blk = molecular target: T1, Blk (Mus musculus, UniProt P16277); test: Kinase panel screen; type: biochemical; settings: Compound I and ATP 10 μM
T1 construct: purchased Upstate USA or Invitrogen (commercial screening service)

Ret = molecular target: T2, Ret (Homo sapiens, UniProt P07949); test: Kinase panel screen; type: biochemical; settings: Compound I and ATP 10 μM
T2 construct: purchased Upstate USA or Invitrogen (contract screening service)

Aurora-A = molecular target: T3, Aurora-A (Homo sapiens, UniProt O14965); test: Kinase panel screen; type: biochemical; settings: Compound I and ATP 10 μM
T3 construct: purchased Upstate USA or Invitrogen (contract screening service)

Ron = molecular target: T4, Ron (Homo sapiens, UniProt Q04912); test: Kinase panel screen; type: biochemical; settings: Compound I and ATP 10 μM
T4 construct: purchased Upstate USA or Invitrogen (commercial screening service)

cKit = molecular target: T5, cKit (Homo sapiens, UniProt P10721); test: Kinase panel screen; type: biochemical; settings: Compound I and ATP 10 μM
T5 construct: purchased Upstate USA or Invitrogen (commercial screening service)

HIPK2 = molecular target: T6, HIPK2 (Homo sapiens, UniProt Q9H2X6); test: Kinase panel screen; type: biochemical; settings: Compound I and ATP 10 μM
T6 construct: purchased Upstate USA or Invitrogen (commercial screening service)

CK18 = molecular target: T7, CK18 (Homo sapiens, UniProt P48730); test: Kinase panel screen; type: biochemical; settings: Compound I and ATP 10 μM
T7 construct: purchased Upstate USA or Invitrogen (contract screening service)

SAPK2b = molecular target: T8, SAPK2b (Homo sapiens, UniProt Q15759); test: Kinase panel screen; type: biochemical; settings: Compound I and ATP 10 μM
T8 construct: purchased Upstate USA or Invitrogen (commercial screening service)

Fgr = molecular target: T9, Fgr (Homo sapiens, UniProt P09769); test: Kinase panel screen; type: biochemical; settings: Compound I and ATP 10 μM
T9 construct: purchased Upstate USA or Invitrogen (contract screening service)

JAK3 = molecular target: T10, JAK3 (Homo sapiens, UniProt P52333); test: Kinase panel screen; type: biochemical; settings: Compound I and ATP 10 μM
T10 construct: purchased Upstate USA or Invitrogen (contract screening service)

ErbB4 = molecular target: T11, ErbB4 (Homo sapiens, UniProt Q15303); test: Kinase panel screen; type: biochemical; settings: Compound I and ATP 10 μM
T11 construct: purchased Upstate USA or Invitrogen (commercial screening service)

Akt2 = Akt2 (Homo sapiens, UniProt P31751); test: Kinase panel screen; type: biochemical; settings: Compound I at 1 μM and ATP at the apparent Km
CDK3 = molecular target: T12, CDK3 (Homo sapiens, UniProt Q00526); test: Kinase panel screen; type: biochemical; settings: Compound I and ATP 10 μM
T12 construct: purchased Upstate USA or Invitrogen (commercial screening service)

CaMKII = test: Kinase panel screen; type: biochemical, rat; settings: Compound I and ATP 10 μM
CSK = molecular target: T13, CSK (Homo sapiens, UniProt P41240); test: Kinase panel screen; type: biochemical; settings: Compound I and ATP 10 μM
T13 construct: purchased Upstate USA or Invitrogen (commercial screening service)

AMPK = test: Kinase panel screen; type: biochemical, rat; settings: Compound I and ATP 10 μM
FGFR1 = molecular target: T14, FGFR1 (Homo sapiens, UniProt P11362); test: Kinase panel screen; type: biochemical; settings: Compound I and ATP 10 μM
T14 construct: purchased Upstate USA or Invitrogen (contract screening service)

TrkA = molecular target: T15, TrkA (Homo sapiens, UniProt P04629); test: Kinase panel screen; type: biochemical; settings: Compound I and ATP 10 μM
T15 construct: purchased Upstate USA or Invitrogen (contract screening service)

Akt3 = molecular target: T16, Akt3 (Homo sapiens, UniProt Q9Y243); test: Kinase panel screen; type: biochemical; settings: Compound I at 1 μM and ATP at the apparent Km
T16 construct: purchased Upstate USA or Invitrogen (commercial screening service)

Arg = molecular target: T17, Arg (Homo sapiens, UniProt P42684); test: Kinase panel screen; type: biochemical; settings: Compound I and ATP 10 μM
T17 construct: purchased Upstate USA or Invitrogen (contract screening service)

cRaf = molecular target: T18, cRaf (Homo sapiens, UniProt P04049); test: Kinase panel screen; type: biochemical; settings: Compound I at 1 μM and ATP at the apparent Km
T18 construct: purchased Upstate USA or Invitrogen (commercial screening service)

BRK = molecular target: T19, BRK (Homo sapiens, UniProt Q13882); test: Kinase panel screen; type: biochemical; settings: Compound I and ATP 10 μM
T19 construct: purchased Upstate USA or Invitrogen (commercial screening service)

SGK = molecular target: T20, SGK (Homo sapiens, UniProt O00141, S422D); test: Kinase panel screen; type: biochemical; settings: Compound I and ATP 10 μM
T20 construct: purchased Upstate USA or Invitrogen (commercial screening service)

GSK3a = molecular target: T21, GSK3a (Homo sapiens, UniProt P49840); test: Kinase panel screen; type: biochemical; settings: Compound I and ATP 10 μM
T21 construct: purchased Upstate USA or Invitrogen (commercial screening service)

IRAK4 = molecular target: T22, IRAK4 (Homo sapiens, UniProt Q9NWZ3); test: Kinase panel screen; type: biochemical; settings: Compound I and ATP 10 μM
T22 construct: purchased Upstate USA or Invitrogen (contract screening service)

CK2 = molecular target: T23, CK2 (Homo sapiens, UniProt P68400); test: Kinase panel screen; type: biochemical; settings: Compound I at 1 μM and ATP at the apparent Km
T23 construct: purchased Upstate USA or Invitrogen (contract screening service)

GSK3 3 = molecular target: T24, GSK3 3 (Homo sapiens, UniProt P49841); test: Kinase panel screen; type: biochemical; settings: Compound I and ATP 10 μM
T24 construct: purchased Upstate USA or Invitrogen (commercial screening service)

MSK2 = molecular target: T25, MSK2 (Homo sapiens, UniProt O75676); test: Kinase panel screen; type: biochemical; settings: Compound I and ATP 10 μM
T25 construct: purchased Upstate USA or Invitrogen (contract screening service)

Akt phosphorylation = test: VEGF-induced Akt phosphorylation in vivo (lung lysates, Western blot); design: species or system Sprague Dawley rats; settings: 0.5 and 5 mg/kg iv, VEGF 30, 60 or 120 min later
Method: FIG. 5. Inhibition of VEGF-induced Akt phosphorylation in vivo. […] Lungs were explanted 5 min after VEGF or saline injection, processed to tissue lysates, and lysates probed in Western blots to detect either phosphorylated Akt or total Akt (as a loading control).
The ability of compounds to impact PI3K activity in vivo was assessed by examining compound influence on vascular endothelial growth factor (VEGF)-induced Akt kinase phosphorylation (VEGF stimulation being an inducer of PI3K activity, and Akt kinase being a direct target of PI3K). Sprague Dawley rats were first injected intravenously (iv) with either vehicle or test compound at 5 mg/kg, and then 30, 60 or 120 min later injected iv with VEGF. Five minutes later, lungs were harvested and used to generate tissue lysates, which were then probed for phosphorylated Akt using Western blot technology; non-phosphorylated Akt was also probed in the same blots as a loading control. In other studies, test compounds was dosed at either 0.5 or 5 mg/kg, and VEGF delivered 60 min later, in order to assess the dose-response relationship of a compound's activities. […]

PKC8 = molecular target: T26, PKC8 (Homo sapiens, UniProt Q05655); test: Kinase panel screen; type: biochemical; settings: Compound I and ATP 10 μM
T26 construct: purchased Upstate USA or Invitrogen (commercial screening service)
T26 sequence (Q05655 whole entry): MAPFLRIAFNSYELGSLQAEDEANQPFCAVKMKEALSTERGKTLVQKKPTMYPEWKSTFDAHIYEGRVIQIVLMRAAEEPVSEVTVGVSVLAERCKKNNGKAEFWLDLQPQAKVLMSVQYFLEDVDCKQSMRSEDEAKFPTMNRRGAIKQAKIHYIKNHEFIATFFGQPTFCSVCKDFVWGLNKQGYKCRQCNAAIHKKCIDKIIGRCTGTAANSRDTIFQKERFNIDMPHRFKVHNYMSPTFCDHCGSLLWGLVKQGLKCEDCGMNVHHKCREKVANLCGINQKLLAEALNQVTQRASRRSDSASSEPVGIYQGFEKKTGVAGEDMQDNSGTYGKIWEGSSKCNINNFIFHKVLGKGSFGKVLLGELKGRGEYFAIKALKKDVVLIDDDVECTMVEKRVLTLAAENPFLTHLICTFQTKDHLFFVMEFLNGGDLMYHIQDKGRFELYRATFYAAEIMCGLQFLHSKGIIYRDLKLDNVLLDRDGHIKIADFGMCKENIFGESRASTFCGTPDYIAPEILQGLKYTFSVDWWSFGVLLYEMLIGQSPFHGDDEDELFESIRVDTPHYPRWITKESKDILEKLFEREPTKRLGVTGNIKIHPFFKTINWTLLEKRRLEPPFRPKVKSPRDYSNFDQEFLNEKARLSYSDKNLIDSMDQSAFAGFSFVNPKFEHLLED

T4 sequence (Q04912 25-1400): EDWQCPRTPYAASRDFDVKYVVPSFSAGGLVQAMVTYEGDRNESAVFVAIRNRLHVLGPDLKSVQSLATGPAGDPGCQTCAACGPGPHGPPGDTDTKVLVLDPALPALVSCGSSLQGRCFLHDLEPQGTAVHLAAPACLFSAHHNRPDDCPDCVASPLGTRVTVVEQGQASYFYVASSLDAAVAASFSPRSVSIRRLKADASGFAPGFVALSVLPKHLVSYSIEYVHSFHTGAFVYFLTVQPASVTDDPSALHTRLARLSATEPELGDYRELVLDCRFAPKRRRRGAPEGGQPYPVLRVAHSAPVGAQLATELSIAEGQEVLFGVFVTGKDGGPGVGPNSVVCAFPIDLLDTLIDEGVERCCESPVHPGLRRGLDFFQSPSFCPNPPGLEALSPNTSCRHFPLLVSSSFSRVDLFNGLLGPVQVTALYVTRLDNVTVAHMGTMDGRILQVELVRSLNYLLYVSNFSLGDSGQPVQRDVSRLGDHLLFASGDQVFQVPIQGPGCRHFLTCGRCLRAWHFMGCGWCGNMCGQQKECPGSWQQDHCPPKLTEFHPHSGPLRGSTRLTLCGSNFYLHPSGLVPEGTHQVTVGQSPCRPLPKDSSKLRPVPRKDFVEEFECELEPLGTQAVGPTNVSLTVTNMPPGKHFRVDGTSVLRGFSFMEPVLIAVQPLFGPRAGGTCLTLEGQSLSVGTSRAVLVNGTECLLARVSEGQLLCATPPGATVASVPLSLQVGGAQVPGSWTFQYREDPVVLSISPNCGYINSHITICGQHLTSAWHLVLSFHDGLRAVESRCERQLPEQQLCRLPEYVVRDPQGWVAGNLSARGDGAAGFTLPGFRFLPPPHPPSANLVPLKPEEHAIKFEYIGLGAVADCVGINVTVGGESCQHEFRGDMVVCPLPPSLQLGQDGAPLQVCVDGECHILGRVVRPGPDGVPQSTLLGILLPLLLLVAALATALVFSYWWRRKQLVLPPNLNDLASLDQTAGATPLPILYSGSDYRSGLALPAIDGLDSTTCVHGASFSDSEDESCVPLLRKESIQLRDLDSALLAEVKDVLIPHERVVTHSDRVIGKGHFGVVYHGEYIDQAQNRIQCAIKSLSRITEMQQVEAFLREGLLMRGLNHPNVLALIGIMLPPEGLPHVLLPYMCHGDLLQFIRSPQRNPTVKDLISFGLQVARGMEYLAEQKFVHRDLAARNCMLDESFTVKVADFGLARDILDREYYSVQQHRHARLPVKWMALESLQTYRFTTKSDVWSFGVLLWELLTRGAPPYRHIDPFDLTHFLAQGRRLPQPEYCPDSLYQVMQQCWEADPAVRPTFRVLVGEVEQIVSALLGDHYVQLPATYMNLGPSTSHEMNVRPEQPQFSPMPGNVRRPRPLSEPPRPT
T25 sequence (O75676 whole entry): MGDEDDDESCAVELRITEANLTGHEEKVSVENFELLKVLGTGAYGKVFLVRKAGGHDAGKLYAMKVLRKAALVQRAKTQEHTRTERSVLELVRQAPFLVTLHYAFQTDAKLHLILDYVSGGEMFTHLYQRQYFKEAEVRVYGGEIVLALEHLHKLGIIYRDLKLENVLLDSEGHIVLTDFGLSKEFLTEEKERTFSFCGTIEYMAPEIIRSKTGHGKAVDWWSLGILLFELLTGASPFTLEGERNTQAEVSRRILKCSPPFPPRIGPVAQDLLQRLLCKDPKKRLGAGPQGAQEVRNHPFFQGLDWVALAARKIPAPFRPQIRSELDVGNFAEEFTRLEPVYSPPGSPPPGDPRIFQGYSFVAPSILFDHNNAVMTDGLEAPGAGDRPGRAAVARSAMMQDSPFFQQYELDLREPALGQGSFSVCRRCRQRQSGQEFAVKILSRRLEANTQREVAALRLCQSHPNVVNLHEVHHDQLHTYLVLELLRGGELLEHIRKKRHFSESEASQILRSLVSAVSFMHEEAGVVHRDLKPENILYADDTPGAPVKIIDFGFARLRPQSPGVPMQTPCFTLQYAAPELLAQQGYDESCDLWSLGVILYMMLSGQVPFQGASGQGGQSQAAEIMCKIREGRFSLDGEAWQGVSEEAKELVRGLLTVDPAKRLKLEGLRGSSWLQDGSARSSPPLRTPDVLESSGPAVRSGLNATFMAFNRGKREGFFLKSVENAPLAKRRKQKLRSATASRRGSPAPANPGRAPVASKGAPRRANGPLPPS
T24 sequence (P49841 whole entry): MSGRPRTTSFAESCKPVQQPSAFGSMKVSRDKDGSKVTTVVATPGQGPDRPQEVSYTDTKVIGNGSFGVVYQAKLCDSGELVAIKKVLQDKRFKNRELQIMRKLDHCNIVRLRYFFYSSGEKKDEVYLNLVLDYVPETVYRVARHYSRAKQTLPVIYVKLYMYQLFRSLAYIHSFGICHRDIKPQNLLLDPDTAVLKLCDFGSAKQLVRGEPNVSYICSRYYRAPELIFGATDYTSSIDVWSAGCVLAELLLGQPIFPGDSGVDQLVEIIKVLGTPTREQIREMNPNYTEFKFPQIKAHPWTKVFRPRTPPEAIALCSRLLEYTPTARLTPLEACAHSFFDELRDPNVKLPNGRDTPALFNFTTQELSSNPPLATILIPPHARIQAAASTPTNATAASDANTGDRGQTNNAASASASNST
Chain of Akt2 (P31751 whole entry): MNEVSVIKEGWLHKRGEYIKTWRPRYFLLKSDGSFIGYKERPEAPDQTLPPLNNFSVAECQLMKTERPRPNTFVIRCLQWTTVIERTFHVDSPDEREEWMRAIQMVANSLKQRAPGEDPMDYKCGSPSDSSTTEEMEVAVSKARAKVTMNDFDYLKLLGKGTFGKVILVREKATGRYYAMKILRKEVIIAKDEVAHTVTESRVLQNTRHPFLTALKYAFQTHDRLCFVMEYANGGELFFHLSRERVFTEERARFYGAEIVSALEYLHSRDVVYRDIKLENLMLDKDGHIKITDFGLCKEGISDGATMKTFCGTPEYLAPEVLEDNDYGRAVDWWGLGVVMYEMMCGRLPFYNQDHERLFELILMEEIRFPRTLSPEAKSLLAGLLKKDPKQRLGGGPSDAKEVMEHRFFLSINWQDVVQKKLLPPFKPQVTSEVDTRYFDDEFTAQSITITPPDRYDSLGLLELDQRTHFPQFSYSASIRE
T10 sequence (P52333 whole entry): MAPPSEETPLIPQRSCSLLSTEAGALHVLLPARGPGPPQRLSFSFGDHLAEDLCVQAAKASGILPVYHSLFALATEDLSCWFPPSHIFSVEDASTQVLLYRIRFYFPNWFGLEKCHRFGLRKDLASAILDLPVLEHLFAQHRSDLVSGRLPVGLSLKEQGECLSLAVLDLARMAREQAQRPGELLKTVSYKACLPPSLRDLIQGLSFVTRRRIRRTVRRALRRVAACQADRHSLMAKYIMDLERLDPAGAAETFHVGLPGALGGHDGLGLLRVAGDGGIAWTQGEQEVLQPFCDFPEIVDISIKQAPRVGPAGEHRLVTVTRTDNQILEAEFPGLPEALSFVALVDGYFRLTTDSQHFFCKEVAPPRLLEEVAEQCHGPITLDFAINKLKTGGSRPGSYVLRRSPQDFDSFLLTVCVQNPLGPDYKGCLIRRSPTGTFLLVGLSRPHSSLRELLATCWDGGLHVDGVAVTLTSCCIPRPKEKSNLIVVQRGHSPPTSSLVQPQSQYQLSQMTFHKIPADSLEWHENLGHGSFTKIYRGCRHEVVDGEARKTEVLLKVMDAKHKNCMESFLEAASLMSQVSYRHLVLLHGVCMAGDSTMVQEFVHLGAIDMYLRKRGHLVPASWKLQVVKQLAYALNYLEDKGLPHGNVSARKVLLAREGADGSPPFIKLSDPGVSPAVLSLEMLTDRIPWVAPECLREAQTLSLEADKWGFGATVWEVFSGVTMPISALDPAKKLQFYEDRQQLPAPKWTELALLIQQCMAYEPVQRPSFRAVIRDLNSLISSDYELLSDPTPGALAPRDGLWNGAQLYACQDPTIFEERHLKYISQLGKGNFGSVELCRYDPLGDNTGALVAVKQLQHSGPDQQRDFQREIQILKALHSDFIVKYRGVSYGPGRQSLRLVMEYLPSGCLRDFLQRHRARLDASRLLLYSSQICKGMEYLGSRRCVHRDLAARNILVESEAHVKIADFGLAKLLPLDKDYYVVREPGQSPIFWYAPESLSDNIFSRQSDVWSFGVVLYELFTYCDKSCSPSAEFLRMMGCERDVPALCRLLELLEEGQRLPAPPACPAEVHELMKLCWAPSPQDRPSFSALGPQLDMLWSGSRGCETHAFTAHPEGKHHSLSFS

Nc1nc(N)c2nc(-c3cccc(O)c3)c(-c3cccc(O)c3)nc2n1 [Compound I, 6,7-bis-(3-hydroxyphenyl)-pteridine-2,4-diamine]
Percent Control, Blk (m) (Blk): 57% | Percent Control, Ret (Ret): 57% | Percent Control, Aurora-A (Aurora-A): 71% | Percent Control, Ron (Ron): 71% | Percent Control, cKit (cKit): 96% | Percent Control, HIPK2 (HIPK2): 87% | Percent Control, CK18 (CK18): 24% | Percent Control, SAPK2b (SAPK2b): 87% | Percent Control, Fgr (Fgr): 72% | Percent Control, JAK3 (JAK3): 99% | Percent Control, ErbB4 (ErbB4): 40% | Percent Control, Akt2* (Akt2): 103% | Percent Control, CDK3 (CDK3): 72% | Percent Control, CaMKII (r) (CaMKII): 90% | Percent Control, CSK (CSK): 114% | Percent Control, AMPK (r) (AMPK): 88% | Percent Control, FGFR1 (FGFR1): 75% | Percent Control, TrkA (TrkA): 57% | Percent Control, Akt3* (Akt3): 98% | Percent Control, Arg (Arg): 43% | Percent Control, cRaf* (cRaf): 98% | Percent Control, BRK (BRK): 79% | Percent Control, SGK (SGK): 95% | Percent Control, GSK3a (GSK3a): 62% | Percent Control, IRAK4 (IRAK4): 89% | Percent Control, CK2* (CK2): 96% | Percent Control, GSK3 3 (GSK3 3): p70S6K Percent | Percent Control, MSK2 (MSK2): 100% | VEGF-induced Akt phosphorylation in lung lysates (Akt phosphorylation): blocked | VEGF-induced Akt phosphorylation in lung lysates (Akt phosphorylation; listed as 6,7-bis-(3-hydroxyphenyl)-pteridine-2,4-diamine): Inhibition | Percent Control, PKC8 (PKC8): 89%
